Test results reported in publication PMC6486640, “The ATPase mechanism of UvrA2 reveals the distinct roles of proximal and distal ATPase sites in nucleotide excision repair” (Nucleic Acids Research, 2019).
Each block holds one molecule with its values, some of them ahead of it.

Columns and labels:
UvrA2 = target: T1, UvrA2 (Geobacillus stearothermophilus, UniProt A0ACH1EC70); experiment: global fit of pre-steady state Pi release (MDCC-PBP stopped-flow), KinTek Explorer; assay type: biochemical; conditions: no DNA; pH 7.4, 5 mM MgCl2, 40°C; distal (high-affinity) sites; best-fit model value; proximal sites are a weaker second site
T1 construct: gene uvrA; pET28a-NHis-UvrA, N-terminal His tag, expressed in E. coli Rosetta (DE3) pLysS; heat-treated to remove ADP; homodimer with proximal and distal ATPase sites per monomer
Text: global fit of pre-steady state Pi release (MDCC-PBP stopped-flow), KinTek Explorer on UvrA2

[1] = target: T2, T. maritima UvrA Δ117-399 (Thermotoga maritima, UniProt Q9WYV0, DEL117-399); experiment: X-ray crystal structure, […] Å; assay type: binding; conditions: ADP in proximal and distal sites
T2 construct: internal deletion of 117-399; preparation in Supplementary Data
T2 sequence (Q9WYV0 other isoform, or with tags, fused parts or gaps DEL117-399): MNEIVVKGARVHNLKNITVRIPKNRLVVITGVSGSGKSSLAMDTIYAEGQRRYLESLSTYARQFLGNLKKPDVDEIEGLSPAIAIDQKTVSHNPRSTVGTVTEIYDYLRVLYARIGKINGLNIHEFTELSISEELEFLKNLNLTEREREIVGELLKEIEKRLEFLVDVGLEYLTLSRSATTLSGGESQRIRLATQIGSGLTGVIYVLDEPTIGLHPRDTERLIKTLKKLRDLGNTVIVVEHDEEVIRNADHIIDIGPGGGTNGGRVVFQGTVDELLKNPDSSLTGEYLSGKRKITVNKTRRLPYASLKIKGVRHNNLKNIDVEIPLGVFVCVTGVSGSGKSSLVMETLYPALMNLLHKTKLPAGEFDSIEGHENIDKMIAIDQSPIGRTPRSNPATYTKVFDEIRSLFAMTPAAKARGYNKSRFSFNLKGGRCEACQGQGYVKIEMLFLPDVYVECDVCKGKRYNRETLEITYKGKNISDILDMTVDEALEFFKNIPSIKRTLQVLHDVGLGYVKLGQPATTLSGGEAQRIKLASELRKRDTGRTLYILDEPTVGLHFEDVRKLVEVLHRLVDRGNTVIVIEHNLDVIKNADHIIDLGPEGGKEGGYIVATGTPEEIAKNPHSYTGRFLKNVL

[2] = target: UvrA2 (UvrA dimer, wild type) (Geobacillus stearothermophilus, UniProt A0ACH1EC70 1-952); experiment: fluorescence anisotropy; 0-250 nM UvrA2, 7.5 nM DNA; Equilibrium fluorescence anisotropy, 7.5 nM DNA, 0-250 nM UvrA2; anisotropy buffer and temperature not in the material (other assays of the paper: 20 mM Tris-HCl pH 7.4, 0.15 M NaCl, 5% glycerol, 5 mM MgCl2, 5 mM DTT, 40 C); conditions: protein: recombinant, tags: N-terminal His (pET28a-NHis-UvrA), chain copies: 2, blunt

Best-fit values (UvrA2): 1 µM
Molecule: Nc1ncnc2c1ncn2[C@@H]1O[C@H](COP(=O)(O)OP(=O)(O)OP(=O)(O)O)[C@@H](O)[C@H]1O [ATP]

Molecule: Nc1ncnc2c1ncn2[C@@H]1O[C@H](COP(=O)(O)OP(=O)(O)O)[C@@H](O)[C@H]1O [ADP]
X-ray crystal structure, 2.0 Å [1]: the fully ADP-bound structure reported here further supports this hypothesis

B1: fluorescein lesion DNA, 50 bp duplex (dsDNA)
DNA 1: CCTGTCAGCTCGTTCTGAGTTCCAGTAGTAATGTGGCCGTAAGTAATCCA
DNA 2: TGGATTACTTACGGCCACATTACTACTGGAACTCAGAACGAGCTGACAGG
modifications: internal fluorescein-dT (iFluorT) at position 26 of strand 1, acts as lesion
Kd ([2]; label: internal fluorescein (strand 1, T26)): 12 ± 2 nM

B2: native (undamaged) DNA, 50 bp duplex (dsDNA)
DNA 1: B1 DNA 2
DNA 2: B1 DNA 1
Kd ([2]; label: 5' 6-FAM on strand 1 (template)): 45 ± 7 nM
